Measurements published in US8344027B2, “4-dimethylaminobutyric acid derivatives” (Hoffmann-La Roche Inc., priority 2008, dated 2013).

Experiments:
hCPT2 = target: T1, hCPT2 (Homo sapiens, UniProt P23786); test: CPT2 inhibition, spectrophotometric DTNB (Ellman's reagent) assay; assay type: biochemical; conditions: human CPT2 expressed in P. pastoris, cell extract; carnitine 500 μM, palmitoyl-CoA 80 μM, DTNB 300 μM
T1 construct: made in house; host or cells: Pichia pastoris strain X-33
T1 sequence (P23786 26-658): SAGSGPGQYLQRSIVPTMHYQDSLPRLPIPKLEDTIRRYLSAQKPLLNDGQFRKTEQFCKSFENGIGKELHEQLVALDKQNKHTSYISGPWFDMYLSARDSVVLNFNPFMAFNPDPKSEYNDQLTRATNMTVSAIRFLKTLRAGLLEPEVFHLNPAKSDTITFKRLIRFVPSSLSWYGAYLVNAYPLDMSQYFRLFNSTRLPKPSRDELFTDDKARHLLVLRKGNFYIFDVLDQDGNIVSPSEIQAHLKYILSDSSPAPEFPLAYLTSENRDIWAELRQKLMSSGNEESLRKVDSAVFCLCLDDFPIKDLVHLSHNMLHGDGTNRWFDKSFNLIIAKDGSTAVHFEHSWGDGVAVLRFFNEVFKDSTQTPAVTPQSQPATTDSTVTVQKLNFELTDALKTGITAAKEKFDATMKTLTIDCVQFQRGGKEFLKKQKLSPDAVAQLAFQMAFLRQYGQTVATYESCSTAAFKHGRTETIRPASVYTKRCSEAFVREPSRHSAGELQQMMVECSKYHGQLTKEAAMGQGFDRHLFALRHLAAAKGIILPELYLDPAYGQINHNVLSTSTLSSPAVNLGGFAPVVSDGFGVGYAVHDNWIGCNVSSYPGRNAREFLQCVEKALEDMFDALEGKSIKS
Method: (§1) The following tests were carried out in order to determine the activity of the compounds of the present invention. Background information on the performed assays can be found in: Jackson et al., 1999, Biochem. J. 341, 483-489 and Jackson et al., 2000, J. Biol. Chem. 275, 19560-19566.
(§2) Human and rat CPT2- and liver CPT1 cDNAs, and human muscle CPT1 cDNA were subcloned in pGAPZB or pGAPZA, respectively. These plasmids were used to transform P. pastoris strain X-33 via electroporation after the preparation of electrocompetent cells. High copy number clones were selected where necessary using 0.5 or 1 mg/ml Zeocin. Cultures for activity measurements were induced for 16 h in YPD medium (1% yeast extract, 2% peptone, 2% glucose). Crude cell extracts were prepared by disrupting the cells with glass beads or French Press, depending on fermenter sizes. After centrifugation, the cell-free extracts were resuspended in cell breaking buffer (50 mM Tris, pH7.4, 100 mM KCl, 1 mM EDTA) in the presence of a protease inhibitor cocktail, before aliquoting and freezing at −20° C.
(§3) CPT activity was measured using a spectrophotometric assay using 5,5′-dithio-bis-(2-nitrobenzoic acid) (DTNB) also called Ellman's reagent. The HS-CoA released on the formation of acylcarnitine from carnitine (500 μM) and palmitoyl-CoA (80 μM) reduced DTNB (300 μM) forming 5-mercapto-2-nitrobenzoic acid which absorbed at 410 nm with a molar extinction coefficient of 13600 M^−1cm^−1. The assay buffer contained 120 mM KCl, 25 mM Tris, pH 7.4, 1 mM EDTA. This assay was used for the identification of CPT inhibitors, particularly/preferentially CPT2-selective inhibitors, versus the liver and muscle CPT1 isoforms.

hL-CPT1 = target: T2, hL-CPT1 (Homo sapiens, UniProt P50416); test: liver CPT1 inhibition, spectrophotometric DTNB (Ellman's reagent) assay; assay type: biochemical; conditions: human liver CPT1 expressed in P. pastoris, cell extract; carnitine 500 μM, palmitoyl-CoA 80 μM, DTNB 300 μM
T2 construct: made in house; host or cells: Pichia pastoris strain X-33
T2 sequence (P50416 1-773): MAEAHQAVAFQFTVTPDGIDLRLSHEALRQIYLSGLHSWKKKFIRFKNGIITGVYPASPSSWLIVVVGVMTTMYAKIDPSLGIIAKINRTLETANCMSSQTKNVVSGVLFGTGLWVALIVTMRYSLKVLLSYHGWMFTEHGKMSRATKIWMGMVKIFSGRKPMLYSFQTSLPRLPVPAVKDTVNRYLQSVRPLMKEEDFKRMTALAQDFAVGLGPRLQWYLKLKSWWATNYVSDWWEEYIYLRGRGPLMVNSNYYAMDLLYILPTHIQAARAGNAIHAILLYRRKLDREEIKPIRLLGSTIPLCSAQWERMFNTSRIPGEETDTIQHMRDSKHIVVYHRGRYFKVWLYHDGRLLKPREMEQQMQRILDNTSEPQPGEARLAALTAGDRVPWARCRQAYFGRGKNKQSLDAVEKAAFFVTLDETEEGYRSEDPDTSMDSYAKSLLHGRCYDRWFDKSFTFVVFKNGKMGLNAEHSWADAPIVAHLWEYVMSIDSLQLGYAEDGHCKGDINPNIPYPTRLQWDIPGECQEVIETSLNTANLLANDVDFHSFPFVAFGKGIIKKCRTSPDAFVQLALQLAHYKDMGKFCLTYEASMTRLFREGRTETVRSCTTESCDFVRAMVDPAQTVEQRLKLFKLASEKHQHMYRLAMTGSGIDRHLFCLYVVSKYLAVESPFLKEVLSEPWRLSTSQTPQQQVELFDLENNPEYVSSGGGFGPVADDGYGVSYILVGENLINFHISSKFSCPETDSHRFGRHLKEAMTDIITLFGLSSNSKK
Method: as §1, §2, §3

Row | SMILES | IC50 (hCPT2) [µM] | IC50 (hL-CPT1) [µM]
1 | COc1ccc(OCCCCCCCCC(=O)N[C@H](CC(=O)O)CN(C)C)cc1OC [Example 26, (R)-3-[9-(3,4-Dimethoxy-phenoxy)-nonanoylamino]-4-dimethylamino-butyric acid] | 0.4 | 1.15
2 | CN(C)C[C@@H](CC(=O)O)NC(=O)CCCCCCCCOc1ccc(C(F)(F)F)cc1 [Example 27, (R)-4-Dimethylamino-3-[9-(4-trifluoromethyl-phenoxy)-nonanoylamino]-butyric acid] | 0.17 | 2.19
3 | COc1ccc(OCCCCCCCCC(=O)N[C@H](CC(=O)O)CN(C)C)cc1 [Example 28, (R)-4-Dimethylamino-3-[9-(4-methoxy-phenoxy)-nonanoylamino]-butyric acid] | 0.015 | 5.44
4 | CN(C)C[C@@H](CC(=O)O)NC(=O)CCCCCCCCOc1cccc2ccccc12 [Example 29, (R)-4-Dimethylamino-3-[9-(naphthalen-1-yloxy)-nonanoylamino]-butyric acid] | 0.16 | > 10
5 | CN(C)C[C@@H](CC(=O)O)NC(=O)CCCCCCCCOc1ccccc1 [Example 31, (R)-4-Dimethylamino-3-(9-phenoxy-nonanoylamino)-butyric acid] | 0.058 | 2.41
6 | CN(C)C[C@@H](CC(=O)O)NC(=O)CCCCCCCCCc1ccccc1 [Example 32, (R)-4-Dimethylamino-3-(10-phenyl-decanoylamino)-butyric acid] | 0.143 | 7.02
7 | CN(C)C[C@H](CC(=O)O)NC(=O)CCCCCCCCCc1ccccc1 [Example 33, (S)-4-Dimethylamino-3-(10-phenyl-decanoylamino)-butyric acid] | 0.948 | > 10
8 | CN(C)C[C@@H](CC(=O)O)NC(=O)CCCCCCCCCc1ccc(F)cc1 [Example 34, (R)-4-Dimethylamino-3-[10-(4-fluoro-phenyl)-decanoylamino]-butyric acid] | 0.122 | 4.32
9 | CN(C)C[C@@H](CC(=O)O)NC(=O)CCCCCCCCCc1ccccc1F [Example 35, (R)-4-Dimethylamino-3-[10-(2-fluoro-phenyl)-decanoylamino]-butyric acid] | 0.046 | 3.59
10 | Cc1ccc(C)c(CCCCCCCCCC(=O)N[C@H](CC(=O)O)CN(C)C)c1 [Example 36, (R)-4-Dimethylamino-3-[10-(2,5-dimethyl-phenyl)-decanoylamino]-butyric acid] | 0.317 | > 10
11 | Cc1cccc(C)c1CCCCCCCCCC(=O)N[C@H](CC(=O)O)CN(C)C [Example 37, (R)-4-Dimethylamino-3-[10-(2,6-dimethyl-phenyl)-decanoylamino]-butyric acid] | 0.241 | > 10
12 | COc1ccc(CCCCCCCCCC(=O)N[C@H](CC(=O)O)CN(C)C)cc1 [Example 38, (R)-4-Dimethylamino-3-[10-(4-methoxy-phenyl)-decanoylamino]-butyric acid] | 0.017 | 6.91
13 | CN(C)C[C@@H](CC(=O)O)NC(=O)CCCCCCCCCc1cccc2ccccc12 [Example 39, (R)-4-Dimethylamino-3-(10-naphthalen-1-yl-decanoylamino)-butyric acid] | 0.003 | > 10
14 | CN(C)C[C@@H](CC(=O)O)NC(=O)CCCCCCCCCc1ccc(C(F)(F)F)cc1 [Example 40, (R)-4-Dimethylamino-3-[10-(4-trifluoromethyl-phenyl)-decanoylamino]-butyric acid] | 0.044 | 6.55
15 | CN(C)C[C@@H](CC(=O)O)NC(=O)CCCCCCCCCc1cccc(F)c1 [Example 41, (R)-4-Dimethylamino-3-[10-(3-fluoro-phenyl)-decanoylamino]-butyric acid] | 0.098 | 7.72
16 | CN(C)C[C@@H](CC(=O)O)NC(=O)CCCCCCCCCc1cccc(F)c1F [Example 42, (R)-3-[10-(2,3-Difluoro-phenyl)-decanoylamino]-4-dimethylamino-butyric acid] | 0.022 | 2.34
17 | CN(C)C[C@@H](CC(=O)O)NC(=O)CCCCCCCCCc1ccsc1 [Example 43, (R)-4-Dimethylamino-3-(10-thiophen-3-yl-decanoylamino)-butyric acid] | 0.118 | 7.31
18 | CN(C)C[C@@H](CC(=O)O)NC(=O)CCCCCCCCCc1cncs1 [Example 44, (R)-4-Dimethylamino-3-(10-thiazol-5-yl-decanoylamino)-butyric acid] | 1.06 | > 10
19 | CN(C)C[C@@H](CC(=O)O)NC(=O)CCCCCCCCCCc1ccccc1 [Example 50, (R)-4-Dimethylamino-3-(11-phenyl-undecanoylamino)-butyric acid] | 2.1 | > 10
20 | CN(C)C[C@@H](CC(=O)O)NC(=O)CCCCCCCCCCCc1ccccc1 [Example 51, (R)-4-Dimethylamino-3-(12-phenyl-dodecanoylamino)-butyric acid] | 0.184 | 1.06
21 | CN(C)C[C@@H](CC(=O)O)NC(=O)NCCCCCCCCCc1ccccc1 [Example 63, (R)-4-Dimethylamino-3-[3-(9-phenyl-nonyl)-ureido]-butyric acid] | 0.332 | 2.87
